Measured values reported in PMC7265341, “Quantifying CDK inhibitor selectivity in live cells” (Nature Communications, 2020).
pIC50: −log10 of the molar value. Where “and” joins values, the source holds several entries; their conditions need not be identical. Identical values can stand only once. Like-named read-outs stand apart in the source and are kept apart here. One block for each compound: values may come before it.

Key:
[1] = molecular target: CDK3/Cyclin E1 (Homo sapiens, UniProt Q00526); assay: NanoBRET live-cell target engagement, CDK3-NanoLuc/Cyclin E1 in HEK-293; format: binding
Sequence of CDK3/Cyclin E1 (Q00526 whole entry): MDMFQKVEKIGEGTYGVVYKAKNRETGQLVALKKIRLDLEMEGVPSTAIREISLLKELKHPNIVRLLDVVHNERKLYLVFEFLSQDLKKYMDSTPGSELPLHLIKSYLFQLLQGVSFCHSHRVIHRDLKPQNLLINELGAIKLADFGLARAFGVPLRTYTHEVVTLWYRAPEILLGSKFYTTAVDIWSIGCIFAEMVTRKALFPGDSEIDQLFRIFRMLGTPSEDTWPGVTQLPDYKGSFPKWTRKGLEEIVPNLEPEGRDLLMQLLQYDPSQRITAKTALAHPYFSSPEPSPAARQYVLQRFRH
Sequence of CDK3/Cyclin E1 (P24864 whole entry partner): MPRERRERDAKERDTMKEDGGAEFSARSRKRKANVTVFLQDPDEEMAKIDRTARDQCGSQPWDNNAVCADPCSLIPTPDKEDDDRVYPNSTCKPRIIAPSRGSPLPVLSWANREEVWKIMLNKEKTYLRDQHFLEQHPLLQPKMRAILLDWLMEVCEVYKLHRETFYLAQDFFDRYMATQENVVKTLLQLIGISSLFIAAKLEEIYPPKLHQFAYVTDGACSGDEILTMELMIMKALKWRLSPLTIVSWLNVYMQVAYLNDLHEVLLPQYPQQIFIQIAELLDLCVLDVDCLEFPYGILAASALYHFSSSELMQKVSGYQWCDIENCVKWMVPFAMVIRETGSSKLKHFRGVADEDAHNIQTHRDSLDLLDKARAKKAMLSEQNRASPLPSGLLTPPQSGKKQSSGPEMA

[2] = molecular target: T1, CDK7 (Homo sapiens, UniProt P50613); assay: NanoBRET live-cell target engagement, NanoLuc-CDK7 in HEK-293; format: binding
T1 sequence (P50613 whole entry): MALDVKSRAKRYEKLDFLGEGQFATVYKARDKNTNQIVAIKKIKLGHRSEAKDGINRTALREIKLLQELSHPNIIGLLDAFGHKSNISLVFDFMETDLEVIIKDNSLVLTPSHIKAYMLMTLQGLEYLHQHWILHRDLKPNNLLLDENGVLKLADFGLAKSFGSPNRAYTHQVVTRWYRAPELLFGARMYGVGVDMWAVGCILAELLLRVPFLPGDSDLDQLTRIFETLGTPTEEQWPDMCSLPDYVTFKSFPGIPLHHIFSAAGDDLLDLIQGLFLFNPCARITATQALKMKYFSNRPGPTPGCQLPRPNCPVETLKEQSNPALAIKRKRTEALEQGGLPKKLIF

[3] = tested on: all 21 human CDKs; assay: Live-cell selectivity profile across all 21 CDK/cyclin complexes in HEK-293; format: binding; conditions: remaining CDK family, live HEK-293; read-out: Collateral CDK (potency)
[4] = molecular target: T1, CDK7; assay: Real-time analysis of engagement (kobs, IC50 vs time) in live cells, CDK7; format: binding
Experimental: Cells were pre-equilibrated with energy transfer probe for 40 min prior to addition of […]
intervals at 25 °C (temperature reduced to avoid evaporation of cell culture medium). To quantify […]
vs time. Apparent association rate was also plotted as k obs vs [RGB286638], where kobs was determined using the one phase association equation (Supplementary Equation 2) in graphpad prism.
Y=Y0 + (Plateau-Y0)*(1-e-K*X) (2) where Y = mBRET ratio, X = time, and K = the observed rate constant ( kobs). […]
CDK7 (left) and CDK6 (right) to generate kobs. Kinetic traces were collected in a single biological experiment (n = 1), where individual data points represent the mean ± S.D of technical triplicates (n = 3).
(B) kobs values (n = 1) were generated from panel A by fitting Supplementary Equation 2, and were then […]
collected at each timepoint represent technical singlicates (n = 1 ). Source data are provided as a Source

[5] = molecular target: CDK4/Cyclin D1 (Homo sapiens, UniProt P11802); assay: Target engagement analysis in MCF7 cells, NLuc-CDK4/Cyclin D1; format: binding; conditions: Panel D;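 further: MCF7 cells transiently transfected to express NLuc-tagged CDK4 together with Cyclin D1, with the assay run in Opti-MEM medium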
Sequence of CDK4/Cyclin D1 (P11802 whole entry, the tested form may be a part): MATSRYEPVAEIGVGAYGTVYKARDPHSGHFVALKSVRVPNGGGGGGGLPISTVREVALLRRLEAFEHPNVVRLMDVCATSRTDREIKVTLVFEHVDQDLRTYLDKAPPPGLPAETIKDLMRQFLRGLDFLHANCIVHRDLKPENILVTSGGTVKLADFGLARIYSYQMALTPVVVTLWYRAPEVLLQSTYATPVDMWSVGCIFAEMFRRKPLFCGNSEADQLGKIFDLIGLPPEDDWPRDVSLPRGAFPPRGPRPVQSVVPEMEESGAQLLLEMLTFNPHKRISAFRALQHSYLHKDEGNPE
Sequence of CDK4/Cyclin D1 (P24385 whole entry partner, the tested form may be a part): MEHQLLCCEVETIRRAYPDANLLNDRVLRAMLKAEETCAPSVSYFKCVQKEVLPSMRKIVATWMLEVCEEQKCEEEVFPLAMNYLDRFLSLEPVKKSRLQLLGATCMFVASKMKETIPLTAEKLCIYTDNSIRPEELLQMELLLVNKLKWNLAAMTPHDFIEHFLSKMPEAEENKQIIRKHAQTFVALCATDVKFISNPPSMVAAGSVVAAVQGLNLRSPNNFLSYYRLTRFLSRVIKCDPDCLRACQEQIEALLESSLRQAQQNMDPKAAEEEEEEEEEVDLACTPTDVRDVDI

[6] = molecular target: CDK6/Cyclin D1 (Homo sapiens, UniProt Q00534); assay: Target engagement analysis in MCF7 cells, NLuc-CDK6/Cyclin D1; format: binding; conditions: Panel C;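 further: MCF7 cells transiently co-transfected with an NLuc-CDK6 fusion plasmid plus a Cyclin D1 expression plasmid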
Sequence of CDK6/Cyclin D1 (Q00534 whole entry, the tested form may be a part): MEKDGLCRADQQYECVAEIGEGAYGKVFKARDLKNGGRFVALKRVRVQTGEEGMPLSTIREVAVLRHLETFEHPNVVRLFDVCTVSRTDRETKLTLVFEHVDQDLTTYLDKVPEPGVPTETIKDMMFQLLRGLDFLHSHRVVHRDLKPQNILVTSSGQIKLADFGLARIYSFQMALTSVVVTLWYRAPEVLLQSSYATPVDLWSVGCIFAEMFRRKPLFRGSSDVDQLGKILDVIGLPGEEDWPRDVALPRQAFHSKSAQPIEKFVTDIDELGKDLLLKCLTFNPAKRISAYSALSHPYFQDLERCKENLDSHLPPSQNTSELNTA
Sequence of CDK6/Cyclin D1 (P24385 whole entry partner, the tested form may be a part): as the sequence (P24385 whole entry partner, the tested form may be a part) above

[7] = tested on: phospho-Rb (Ser 807/811); assay: Endogenous phospho-Rb (Ser 807/811) Lumit immunoassay in MCF7 cells; format: cell-based, human; conditions: for Normalized pRB (%): Panel E;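 on all read-outs here: Serum-starved cells exposed to compounds for 24 h with 25 ng/mL hEGF, then lysed, phospho-Rb detected by split-luciferase antibody pair luminescence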
[8] = CDK7, average, read-out: Inhibition at 10µM (%)
[9] = CDK7, experiment 1, read-out: Inhibition at 10µM (%)
[10] = CDK7, experiment 2, read-out: Inhibition at 10µM (%)
[11] = LOG10([THZ1]) (LOG10(µM)) 0.346787
[12] = LOG10([THZ1]) (LOG10(µM)) 0.823909
[13] = LOG10([THZ1]) (LOG10(µM)) 1.30103, Replicates 1 and 2
[14] = LOG10([THZ1]) (LOG10(µM)) -0.60746
[15] = LOG10([THZ1]) (LOG10(µM)) -1.08458
[16] = LOG10([THZ1]) (LOG10(µM)) -1.5617
[17] = LOG10([THZ1]) (LOG10(µM)) -2.03882
[18] = LOG10([THZ1]) (LOG10(µM)) -2.51594
[19] = LOG10([THZ1]) (LOG10(µM)) -2.99306
[20] = LOG10([THZ1]) (LOG10(µM)) -3.47018
[21] = LOG10([THZ1]) (LOG10(µM)) -3.9473
[22] = LOG10([Compound]) (LOG10(µM)) 0.0457575
[23] = LOG10([Compound]) (LOG10(µM)) 0.522879
[24] = LOG10([Compound]) (LOG10(µM)) 1
[25] = LOG10([Compound]) (LOG10(µM)) -0.431364
[26] = LOG10([Compound]) (LOG10(µM)) -0.908485
[27] = LOG10([Compound]) (LOG10(µM)) -1.38561
[28] = LOG10([Compound]) (LOG10(µM)) -1.86273
[29] = LOG10([Compound]) (LOG10(µM)) -2.33985
[30] = LOG10([Compound]) (LOG10(µM)) -2.81697
[31] = LOG10([Compound]) (LOG10(µM)) -3.29409

SMILES: Cn1cc(-c2ccc(-c3cncc(Cl)c3N3CCC4(CCNC4=O)CC3)cc2)cn1 [CCT251545]
inhibition at 10 µM ([1]; read-out: Inhibition at 10µM (%), CDK3/E1, average): -2.7%
inhibition at 10 µM ([1]; read-out: Inhibition at 10µM (%), CDK3/E1, experiment 1): -4.5%
inhibition at 10 µM ([1]; read-out: Inhibition at 10µM (%), CDK3/E1, experiment 2): -1%
inhibition at 10 µM [2, 8]: -8.2%
inhibition at 10 µM [2, 9]: -5.4%
inhibition at 10 µM [2, 10]: -11.1%
pIC50 [3]: < 6.00

SMILES: COC1CN(C(=O)c2ccc3c(N)ncc(-c4ccc(-c5cnn(C)c5)cc4)c3n2)C1 [CCT251545 analog]
inhibition at 10 µM ([1]; CDK3/E1, average, read-out: Inhibition at 10µM (%)): 0.5%
inhibition at 10 µM ([1]; CDK3/E1, experiment 1, read-out: Inhibition at 10µM (%)): 3.3%
inhibition at 10 µM ([1]; CDK3/E1, experiment 2, read-out: Inhibition at 10µM (%)): -2.3%
inhibition at 10 µM [2, 8]: 9.4%
inhibition at 10 µM [2, 9]: 11.5%
inhibition at 10 µM [2, 10]: 7.3%
pIC50 [3]: < 6.00

SMILES: CN(C)C/C=C/C(=O)Nc1ccc(C(=O)Nc2cccc(Nc3ncc(Cl)c(-c4c[nH]c5ccccc45)n3)c2)cc1 [THZ1]
CDK3/E1 Inhibition at 10µM (%) ([1]; 10µM, average of experiments): 55.0%
CDK3/E1 Inhibition at 10µM (%) ([1]; 10µM, independent experiment 1): 14.7%
CDK3/E1 Inhibition at 10µM (%) ([1]; 10µM, independent experiment 2): 95.2%
CDK7 Inhibition at 10µM (%) ([2]; 10µM, average of experiments): 83.9%
CDK7 Inhibition at 10µM (%) ([2]; 10µM, independent experiment 1): 70.6%
CDK7 Inhibition at 10µM (%) ([2]; 10µM, independent experiment 2): 97.1%
mBRET values, 2h [4, 11]: 8.56 mBRET and 5.32 mBRET
mBRET values, 2h [4, 12]: 7.68 mBRET and 4.86 mBRET
mBRET values, 2h [4, 13]: 6.67 mBRET and 4.16 mBRET
mBRET values, 2h [4, 14]: 15 mBRET and 7.79 mBRET
mBRET values, 2h [4, 15]: 16.83 mBRET and 10.6 mBRET
mBRET values, 2h [4, 16]: 18.12 mBRET and 11.5 mBRET
mBRET values, 2h [4, 17]: 20.68 mBRET and 12.8 mBRET
mBRET values, 2h [4, 18]: 20.88 mBRET and 13.4 mBRET
mBRET values, 2h [4, 19]: 20.48 mBRET and 13.4 mBRET
mBRET values, 2h [4, 20]: 19.82 mBRET and 13.5 mBRET
mBRET values, 2h [4, 21]: 20.06 mBRET and 13.5 mBRET
mBRET values, 6h [4, 11]: 7.65 mBRET and 4.87 mBRET
mBRET values, 6h [4, 12]: 7.21 mBRET and 4.56 mBRET
mBRET values, 6h [4, 13]: 6.77 mBRET and 4.18 mBRET
mBRET values, 6h ([4]; LOG10([THZ1]) (LOG10(µM)) -0.13033): 8.08 mBRET and 4.82 mBRET
mBRET values, 6h [4, 14]: 8.54 mBRET and 5.25 mBRET
mBRET values, 6h [4, 15]: 9.55 mBRET and 5.83 mBRET
mBRET values, 6h [4, 16]: 13.84 mBRET and 8.78 mBRET
mBRET values, 6h [4, 17]: 18.55 mBRET and 12 mBRET
mBRET values, 6h [4, 18]: 19.6 mBRET and 13.1 mBRET
mBRET values, 6h [4, 19]: 19.14 mBRET and 12.9 mBRET
mBRET values, 6h [4, 20]: 18.6 mBRET and 13.6 mBRET
mBRET values, 6h [4, 21]: 19.78 mBRET and 13.4 mBRET

inhibition at 10 µM ([1]; 10µM, average of experiments, read-out: CDK3/E1 Inhibition at 10µM (%)): 2.3%
inhibition at 10 µM ([1]; 10µM, independent experiment 1, read-out: CDK3/E1 Inhibition at 10µM (%)): 3.5%
inhibition at 10 µM ([1]; 10µM, independent experiment 2, read-out: CDK3/E1 Inhibition at 10µM (%)): 1.1%
inhibition at 10 µM ([2]; 10µM, average of experiments, read-out: CDK7 Inhibition at 10µM (%)): 8.6%
inhibition at 10 µM ([2]; 10µM, independent experiment 1, read-out: CDK7 Inhibition at 10µM (%)): -3.8%
inhibition at 10 µM ([2]; 10µM, independent experiment 2, read-out: CDK7 Inhibition at 10µM (%)): 20.9%
CDK4 Target Occupancy [5, 22]: 104 and 103.238 and 105.143
CDK4 Target Occupancy [5, 23]: 109.905 and 105.81 and 108 and 106.476
CDK4 Target Occupancy [5, 28]: 99.1429 and 96.1905 and 95.9048
CDK4 Target Occupancy [5, 29]: 89.0476 and 92.4762 and 89.4286
CDK4 Target Occupancy ([5]; LOG10([Compound]) (LOG10(µM)) -3.77121): 32.381 and 31.4286 and 33.3333
CDK6 Target Occupancy [6, 26]: 100.715 and 100.045 and 100 and 101.028
pIC50 ([7]; Homo sapiens, MCF7 cells, Panel F pIC50 correlations): 7.68
SMILES: CN1CCN(c2ccc(Nc3ncc4cc5n(c4n3)C3(CCCCC3)CNC5=O)nc2)CC1 [Trilaciclib]
CDK4 Target Occupancy [5, 24]: 104.19 and 102.19 and 103.238 and 105.143
CDK4 Target Occupancy [5, 25]: 107.333 and 104.381 and 108.571 and 104.286
CDK4 Target Occupancy [5, 26]: 102.286 and 102.857 and 103.333 and 103.048
CDK4 Target Occupancy [5, 27]: 103.238 and 101.524 and 101.714 and 103.81
CDK4 Target Occupancy [5, 30]: 77.4286 and 74.7619 and 73.7143 and 67.1429
CDK4 Target Occupancy [5, 31]: 58.1905 and 60.6667 and 56.5714 and 57.0476
CDK6 Target Occupancy [6, 22]: 101.609 and 102.011 and 101.117 and 100.76
CDK6 Target Occupancy [6, 23]: 102.28 and 102.861 and 100.67 and 102.905
CDK6 Target Occupancy [6, 24]: 101.52 and 101.564 and 101.073 and 101.654
CDK6 Target Occupancy [6, 25]: 101.654 and 100.223 and 101.833 and 101.341
CDK6 Target Occupancy [6, 27]: 97.5863 and 94.6363 and 95.9772 and 97.2287
CDK6 Target Occupancy [6, 28]: 90.9264 and 90.3453 and 90.1218 and 88.5574
CDK6 Target Occupancy [6, 29]: 74.567 and 73.0473 and 71.5722 and 77.4723
CDK6 Target Occupancy [6, 30]: 30.7185 and 35.6353 and 35.9482 and 37.7808
Normalized pRB (%) [7, 22]: 9.9% and 10.9% and 11.1%
Normalized pRB (%) [7, 23]: 8.7% and 9.3% and 9.4%
Normalized pRB (%) [7, 24]: 9.1% and 9.9% and 10.7%
Normalized pRB (%) [7, 25]: 11.9% and 12.2% and 12.8%
Normalized pRB (%) [7, 26]: 21.1% and 21.7% and 21.4%
Normalized pRB (%) [7, 27]: 39.5% and 43.3% and 40.8%
Normalized pRB (%) [7, 28]: 65.2% and 69.5% and 71.9%
Normalized pRB (%) [7, 29]: 95% and 98.6% and 94.8%
Normalized pRB (%) [7, 30]: 103% and 105.2% and 103.9%
Normalized pRB (%) [7, 31]: 100.3% and 111% and 109%
